Source: patent publication US12520844B2 (Bayer Aktiengesellschaft, priority 2020, dated 2026)

assay: Measurement of Log P values by HPLC on reversed phase columns (EEC directive 79/831 Annex V.A8); assay type: physicochemical
Procedure: Measurement of Log P values as provided herein was performed according to EEC directive 79/831 Annex V.A8 by HPLC (High Performance Liquid Chromatography) on reversed phase columns with the following methods: • ^[a] Log P value is determined by measurement of LC-UV, in an acidic range, with 0.1% formic acid in water and acetonitrile as eluent (linear gradient from 10% acetonitrile to 95% acetonitrile). • ^[b] Log P value is determined by measurement of LC-UV, in a neutral range, with 0.001 molar ammonium acetate solution in water and acetonitrile as eluent (linear gradient from 10% acetonitrile to 95% acetonitrile). • ^[c] Log P value is determined by measurement of LC-UV, in an acidic range, with 0.1% phosphoric acid and acetonitrile as eluent (linear gradient from 10% acetonitrile to 95% acetonitrile).
If more than one Log P value is available within the same method, all the values are given and separated by “+”.
Calibration was done with straight-chain alkan2-ones (with 3 to 16 carbon atoms) with known Log P values (measurement of Log P values using retention times with linear interpolation between successive alkanones). Lambda-max-values were determined using UV-spectra from 200 nm to 400 nm and the peak values of the chromatographic signals

Which LogP does the source give for `Cc1ncc(Oc2cccc(C3CC3)c2F)c(C(=O)NCCc2cccs2)n1` [Compound I-064] here?
Its LogP is 3.43^[a].

For `Cc1ncc(Oc2cccc(C(F)(F)F)c2)c(C(=O)O)n1` [Compound 1-01, 2-methyl-5-[3-(trifluoromethyl)phenoxy]pyrimidine-4-carboxylic Acid], which chromatographic logP is on record?
The chromatographic logP was 1.69.

Which LogP does the source give for `Cc1ccc(C(F)(F)CNC(=O)c2nc(C3CC3)nnc2Oc2cccc(Br)c2F)c(C)c1` [Compound I-025] here?
Its LogP is 4.66^[a].

Which LogP does the source give for `CCOC(=O)c1nc(C2CC2)nnc1Oc1cccc(C2CC2)c1F` [Compound 1-08] here?
The LogP was 4.19^[a].

For `CSc1cccc(Oc2cnc(C)nc2C(=O)NCC(F)(F)c2ccc(C)cc2C)c1` [Compound I-126], which LogP is on record?
Its LogP is 4.11^[a].

For `Nc1ncc(Oc2cccc(C(F)(F)F)c2)c(C(=O)NCCc2ccc(Br)cc2)n1` [Compound I-095], which LogP is on record?
The LogP was 4.05^[a].

For `Cc1ncc(Oc2cccc(C3CC3)c2F)c(C(=O)NCCc2ccc(C)o2)n1` [Compound I-041], which LogP is on record?
Its LogP is 3.52^[a].

For `COc1ccc2c(c1)C(NC(=O)c1nc(C)ncc1Oc1cccc(C3CC3)c1F)C(OC)CC2` (stereo not drawn) [Compound I-060], which LogP is on record?
Its LogP is 3.72^[a].

For `CCOC(=O)c1nc(C2CC2)nnc1Oc1cccc(C)c1F` [Compound 1-09], which LogP is on record?
The LogP was 3.78^[a].

Which LogP does the source give for `Cc1ncc(Oc2cccc(C3CC3)c2F)c(C(=O)NCC(F)c2ccc(Cl)c(Cl)c2)n1` (racemic) [Compound I-127] here?
The LogP was 4.38^[a].

With `CCON(Cc1ccccc1)C(=O)c1nc(C)ncc1Oc1cccc(C2CC2)c1F` [Compound I-123] as the compound, how does the LogP read?
The LogP was 3.97^[a].

Which LogP does the source give for `CCOC(=O)c1nc(C2CC2)nnc1Oc1cccc(Cl)c1F` [Compound 1-06] here?
Its LogP is 3.86^[a].

For `Cc1ncc(Oc2cccc(C3CC3)c2F)c(C(=O)NCCc2cnc(C(F)(F)F)nc2)n1` [Compound I-032], which LogP is on record?
The LogP was 3.09^[a].

Which LogP does the source give for `C#Cc1cccc(Oc2cnc(C)nc2C(=O)NCC(F)(F)c2ccc(C)cc2C)c1` [Compound I-102] here?
The LogP was 4.01^[a].

Which LogP does the source give for `Cc1ccc(C(F)(F)CNC(=O)c2nc(C3CC3)nnc2Oc2cccc(Br)c2)c(C)c1` [Compound I-062] here?
Its LogP is 4.59^[a].

For `C#Cc1cccc(Oc2nnc(C3CC3)nc2C(=O)N/C=C(\F)c2ccc(C)cc2C)c1` [Compound I-038], which LogP is on record?
The LogP was 4.59^[a].

With `Cc1cc(C)n(CCNC(=O)c2nc(C)ncc2Oc2cccc(C3CC3)c2F)n1` [Compound I-075] as the compound, how does the LogP read?
Its LogP is 2.60^[a].

Which LogP does the source give for `Cc1ncc(Oc2cccc(C3CC3)c2F)c(C(=O)NOCc2ccc(OC(F)(F)F)cc2)n1` [Compound I-100] here?
Its LogP is 3.89^[a].

Which LogP does the source give for `Cc1ccc(C(F)(F)CNC(=O)c2nc(C)ncc2Oc2cccc(N(C)C)c2)c(C)c1` [Compound I-035] here?
Its LogP is 3.88^[a].

For `Cc1ccc(C(F)(F)CNC(=O)c2nc(C)ncc2Oc2ccc3ccsc3c2)c(C)c1` [Compound I-023], which LogP is on record?
Its LogP is 4.15^[a].

Which LogP does the source give for `Cc1ccc(C(F)(F)CNC(=O)c2nc(C)ncc2Oc2cccc(Cl)c2F)c(C)c1` [Compound I-039] here?
Its LogP is 4.22^[a].

Which LogP does the source give for `Cc1cnn(CCNC(=O)c2nc(C)ncc2Oc2cccc(C3CC3)c2F)c1` [Compound I-052] here?
The LogP was 2.59^[a].

For `CCOC(=O)c1nc(C2CC2)nnc1Oc1cccc(Br)c1` [Compound 1-10], which LogP is on record?
Its LogP is 3.94^[a].

Which LogP does the source give for `CCc1cccc(Oc2cnc(C)nc2C(=O)NCC(F)(F)c2ccc(C)cc2C)c1` [Compound I-071] here?
Its LogP is 4.42^[a].

For `Cc1ccc(C(F)(F)CNC(=O)c2nc(C)ncc2Oc2ccc3c(c2)CCC3)c(C)c1` [Compound I-104], which LogP is on record?
Its LogP is 4.56^[a].

For `C=Cc1cccc(Oc2cnc(C)nc2C(=O)NCC(F)(F)c2ccc(C)cc2C)c1` [Compound I-115], which LogP is on record?
Its LogP is 4.17^[a].

With `COc1ncc(Oc2cccc(C(F)(F)F)c2)c(C(=O)NCC(F)(F)c2ccc(C)cc2C)n1` [Compound I-009] as the compound, how does the LogP read?
The LogP was 4.46^[a].

For `Cc1ccc(/C(F)=C/NC(=O)c2nc(C3CC3)nnc2Oc2cccc(Cl)c2F)c(C)c1` [Compound I-105], which LogP is on record?
The LogP was 5.36^[a].

With `O=C(O)c1nc(F)ncc1Oc1cccc(C(F)(F)F)c1` [Compound 1-13] as the compound, how does the LogP read?
The LogP was 1.52^[a].

Which LogP does the source give for `Cc1ncc(Oc2cccc(C3CC3)c2F)c(C(=O)NCC(F)c2ccc(C)c(C)c2)n1` (stereo not drawn) [Compound I-043] here?
The LogP was 4.22^[a].

With `Cc1ccc(C(F)(F)CNC(=O)c2nc(C3CC3)ncc2Oc2cccc(Cl)c2)c(C)c1` [Compound I-014] as the compound, how does the LogP read?
Its LogP is 5.00^[a].

With `Cc1ncc(Oc2cccc(C3CC3)c2F)c(C(=O)NCCc2csc(C)c2C)n1` [Compound I-134] as the compound, how does the LogP read?
The LogP was 4.10^[a].

Which LogP does the source give for `COCCOc1cccc(Oc2cnc(C)nc2C(=O)NCC(F)(F)c2ccc(C)cc2C)c1` [Compound I-059] here?
The LogP was 3.66^[a].

For `Cc1ccc(C(F)(F)CNC(=O)c2nc(C)ncc2Oc2cccc(-n3ccc(C(F)(F)F)n3)c2)c(C)c1` [Compound I-122], which LogP is on record?
The LogP was 4.54^[a].

With `Cc1ccc(C(F)(F)CNC(=O)c2nc(C)ncc2Oc2ccc(C(F)(F)F)cc2)c(C)c1` [Compound I-049] as the compound, how does the LogP read?
Its LogP is 4.39^[a].

With `Cc1ccc(C(F)(F)CNC(=O)c2nc(C)ncc2Oc2cccc(C(F)(F)F)c2)c(Cl)c1` [Compound I-008] as the compound, how does the LogP read?
Its LogP is 4.37^[a].

For `C#Cc1cccc(Oc2nnc(C3CC3)nc2C(=O)OCC)c1` [Compound 1-11], which LogP is on record?
The LogP was 3.59^[a].

For `Cc1ccc(C(F)(F)CNC(=O)c2nc(C)ncc2Oc2cccc(C)c2F)c(C)c1` [Compound I-083], which LogP is on record?
The LogP was 4.07^[a].

With `Cc1ncc(Oc2cccc(C3CC3)c2F)c(C(=O)NCCc2ccc3[nH]ccc3c2)n1` [Compound I-029] as the compound, how does the LogP read?
Its LogP is 3.21^[a].

Which LogP does the source give for `Cc1ccc(C(F)(F)CNC(=O)c2nc(C3CC3)nnc2Oc2cccc(C(F)(F)F)c2)c(C)c1` [Compound I-121] here?
Its LogP is 4.74^[a].

With `COc1cccc(Oc2nnc(C3CC3)nc2C(=O)N/C=C(\F)c2ccc(C)cc2C)c1` [Compound I-061] as the compound, how does the LogP read?
The LogP was 4.44^[a].

Which LogP does the source give for `Cc1ccc(C(F)(F)CNC(=O)c2nc(C)ncc2Oc2cccc3c2CCC3)c(C)c1` [Compound I-092] here?
Its LogP is 4.49^[a].
